In patent publication US20050170481A1, “Novel (d)-2-hydroxy-acid oxidase derived from microorganism and biochemical process for producing glyoxylic acid therewith” (priority 2002, published 2005):

Tests used:
[1] = tested on: (D)-2-hydroxy-acid oxidase (enzyme of the present invention); test: Oxidase reaction activity (H2O2 / 4-AA / TOOS / POD, absorbance at 555 nm), substrate specificity; assay type: biochemical, Arthrobacter sp. KNK-GA1 strain; conditions: for Relative activity (%): Table 2, 30° C., 100 seconds; for activity of the (D)-2-hydroxy-acid oxidase for the substrate (in words): summary of Table 1
Description: The reaction activity of oxidase is basically measured by adding 0.1 ml of an enzyme solution to 0.9 ml of a 100 mM phosphate buffer (pH 7) having the composition below, and measuring an increase in absorbance at a wavelength of 555 nm at 30° C. In the present invention, when 1 μmol of H2O2 is produced for 1 minute, the enzyme activity is defined as 1 unit.
The enzymatic properties of the enzyme produced in Example 6 were measured.
(§1) The enzyme activity was basically measured by reacting 1.0 ml of a reaction solution containing 10 mM of a substrate such as glycolic acid, 0.67 mM of 4-AA, 1.09 mM of TOOS, 2 U/ml of POD, and 0.1 ml of an enzyme solution in a 100 mM phosphate buffer or Tris buffer at 30° C. for 100 seconds, and then measuring an increase in absorbance at a wavelength of 555 nm.

[2] = target: T1, glycolate oxidase (produced by Sigma Corporation) derived from spinach (Spinacia oleracea, UniProt P05414); test: Substrate specificity of glycolate oxidase derived from spinach; assay type: biochemical
T1 construct: purchased Sigma Corporation
T1 sequence (P05414 1-369): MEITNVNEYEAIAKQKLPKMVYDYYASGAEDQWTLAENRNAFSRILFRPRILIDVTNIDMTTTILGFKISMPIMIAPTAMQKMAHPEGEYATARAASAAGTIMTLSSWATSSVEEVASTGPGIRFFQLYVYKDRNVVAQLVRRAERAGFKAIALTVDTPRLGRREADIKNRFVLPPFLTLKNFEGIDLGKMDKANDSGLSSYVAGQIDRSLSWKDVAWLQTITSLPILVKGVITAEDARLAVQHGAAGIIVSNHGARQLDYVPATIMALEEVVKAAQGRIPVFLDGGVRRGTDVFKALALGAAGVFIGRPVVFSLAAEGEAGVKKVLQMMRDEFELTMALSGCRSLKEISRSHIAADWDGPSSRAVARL
Description: In Table 1, the activity of each enzyme for glycolic acid is […] regarded as 100%.
as §1
The activity of glycolate oxidase (produced by Sigma Corporation) derived from spinach was examined for various 2-hydroxy acid compounds, and the results were compared with the results of the enzyme of the present invention produced in Example […].

glycolate oxidase [3] = conditions: Table 1; activity for glycolic acid regarded as 100%; J. Biochem., 16, 1373-1378, 1984; cited from earlier work
glycolate oxidase [4] = conditions: Table 1; activity for glycolic acid regarded as 100%; J. Phycol., 32, 790-798, 1996; cited from earlier work
[5] = tested on: lactic acid oxidase derived from soil gram-negative bacteria; conditions: Appl. Biochem. Biotechnol., 56, 277-288, 1996; cited from earlier work
[6] = Table 1, activity for glycolic acid regarded as 100%

1-propanol
Relative activity (%) ([1]; Substrate 10 mM): 0%

CCC(O)C(=O)O (racemic) [DL-2-hydroxybutyric acid]
Relative activity (%), Enzyme of this invention [1, 6]: 42% | Relative activity (%) ([1]; Substrate 10 mM): 42% | Relative activity (%), Enzyme of this invention ([1]; Table 3, Substrate 10 mM): 42% | Relative activity (%), Spinach [2, 6]: 71% | Relative activity (%), Spinach ([2]; Table 3, Substrate 10 mM): 71% | Relative Activity (%), Lemna minor (glycolate oxidase [3]): 57% | Relative Activity (%), Spatoglossum pacificum (glycolate oxidase [4]): 55%

CCCCC(O)C(=O)O (racemic) [DL-2-hydroxycaproic acid]
Relative activity (%), Enzyme of this invention [1, 6]: 7% | Relative activity (%) ([1]; Substrate 10 mM): 7% | Relative activity (%), Enzyme of this invention ([1]; Table 3, Substrate 10 mM): 7% | Relative activity (%), Spinach [2, 6]: 29% | Relative activity (%), Spinach ([2]; Table 3, Substrate 10 mM): 29% | Relative Activity (%), Lemna minor (glycolate oxidase [3]): 13%

CC(C)CC(O)C(=O)O (racemic) [DL-2-hydroxyisocaproic acid]
Relative activity (%), Enzyme of this invention [1, 6]: 10% | Relative activity (%) ([1]; Substrate 10 mM): 10% | Relative activity (%), Enzyme of this invention ([1]; Table 3, Substrate 10 mM): 10% | activity of the (D)-2-hydroxy-acid oxidase for the substrate (in words) [1]: shows activity | Relative activity (%), Spinach [2, 6]: 51% | Relative activity (%), Spinach ([2]; Table 3, Substrate 10 mM): 51%

CCCC(O)C(=O)O (racemic) [DL-2-hydroxyvaleric acid]
Relative activity (%), Enzyme of this invention [1, 6]: 32% | Relative activity (%) ([1]; Substrate 10 mM): 32% | Relative activity (%), Enzyme of this invention ([1]; Table 3, Substrate 10 mM): 32% | Relative activity (%), Spinach [2, 6]: 70% | Relative activity (%), Spinach ([2]; Table 3, Substrate 10 mM): 70% | Relative Activity (%), Lemna minor (glycolate oxidase [3]): 52% | Relative Activity (%), Spatoglossum pacificum (glycolate oxidase [4]): 91%

O=C(O)C(O)CO (racemic) [DL-glyceric acid]
Relative activity (%) ([1]; Substrate 10 mM): 54% | Relative activity (%), Enzyme of this invention ([1]; Table 3, Substrate 10 mM): 54% | Relative activity (%), Spinach ([2]; Table 3, Substrate 10 mM): 76%

O=C(O)CC(O)C(=O)O (racemic) [DL-malic acid]
Relative activity (%) ([1]; Substrate 10 mM): 0%

CC(O)CO (stereo not shown) [1,2-propanediol]
Relative activity (%) ([1]; Substrate 10 mM): 0%

CC(C)O [2-propanol]
Relative activity (%) ([1]; Substrate 10 mM): 0%

C[C@@H](O)C(=O)O [D-lactic acid]
Relative activity (%), Enzyme of this invention [1, 6]: 82% | Relative activity (%) ([1]; Substrate 10 mM): 82% | Relative activity (%), Enzyme of this invention ([1]; Table 3, Substrate 10 mM): 82% | activity of the (D)-2-hydroxy-acid oxidase for the substrate (in words) [1]: high activity | Relative activity (%), Spinach [2, 6]: 0% | Relative activity (%), Spinach ([2]; Table 3, Substrate 10 mM): 0% | Relative Activity (%), Lemna minor (glycolate oxidase [3]): 7% | Relative Activity (%), Spatoglossum pacificum (glycolate oxidase [4]): 0%

CCO [Ethanol]
Relative activity (%) ([1]; Substrate 10 mM): 0%

OCCO [Ethylene glycol]
Relative activity (%) ([1]; Substrate 10 mM): 0%

OCC(O)CO [Glycerin]
Relative activity (%) ([1]; Substrate 10 mM): 0%

O=C(O)CO [Glycolic acid]
Relative activity (%), Enzyme of this invention [1, 6]: 100% | Relative activity (%) ([1]; Substrate 10 mM): 100% | Relative activity (%), Enzyme of this invention ([1]; Table 3, Substrate 10 mM): 100% | activity of the (D)-2-hydroxy-acid oxidase for the substrate (in words) [1]: high activity | Relative activity (%), Spinach [2, 6]: 100% | Relative activity (%), Spinach ([2]; Table 3, Substrate 10 mM): 100% | Relative Activity (%), Lemna minor (glycolate oxidase [3]): 100% | Relative Activity (%), Spatoglossum pacificum (glycolate oxidase [4]): 100%

O=CC(=O)O [Glyoxylic acid]
Relative activity (%), Enzyme of this invention [1, 6]: 4% | activity of the (D)-2-hydroxy-acid oxidase for the substrate (in words) [1]: relatively low activity | Relative activity (%), Spinach [2, 6]: 8% | Relative Activity (%), Lemna minor (glycolate oxidase [3]): 35% | Relative Activity (%), Spatoglossum pacificum (glycolate oxidase [4]): 14%

CC(C)C[C@H](O)C(=O)O [L-2-hydroxyisocaproic acid]
Relative activity (%), Enzyme of this invention [1, 6]: 0% | Relative activity (%) ([1]; Substrate 10 mM): 0% | Relative activity (%), Enzyme of this invention ([1]; Table 3, Substrate 10 mM): 0% | activity of the (D)-2-hydroxy-acid oxidase for the substrate (in words) [1]: no activity | Relative activity (%), Spinach [2, 6]: 68% | Relative activity (%), Spinach ([2]; Table 3, Substrate 10 mM): 68% | Relative Activity (%), Lemna minor (glycolate oxidase [3]): 30% | Relative Activity (%), Spatoglossum pacificum (glycolate oxidase [4]): 77%

C[C@H](O)C(=O)O [L-lactic acid]
Relative activity (%), Enzyme of this invention [1, 6]: 0% | Relative activity (%) ([1]; Substrate 10 mM): 0% | Relative activity (%), Enzyme of this invention ([1]; Table 3, Substrate 10 mM): 0% | activity of the (D)-2-hydroxy-acid oxidase for the substrate (in words) [1]: no activity | Relative activity (%), Spinach [2, 6]: 81% | Relative activity (%), Spinach ([2]; Table 3, Substrate 10 mM): 81% | Relative Activity (%), Lemna minor (glycolate oxidase [3]): 60% | Relative Activity (%), Spatoglossum pacificum (glycolate oxidase [4]): 26% | activity for L-lactic acid as rate of the activity for D-lactic acid [5]: 57%

CO [Methanol]
Relative activity (%) ([1]; Substrate 10 mM): 0%

O=C(O)CCO [β-hydroxypropionic acid]
Relative activity (%) ([1]; Substrate 10 mM): 1%
